Data on eight compounds can be found in PubChem BioAssay (NCI).

The structures appear in SMILES notation. Several values for one entry are separate records, joined by “and”; a condition that tells them apart may be missing. Equal entries are not always repeated.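 These data come from cells grown in 96-well plates and exposed to compound for 48 hours at five concentrations. GI50 is the concentration that inhibits growth by half. The concentration for full growth arrest is given as TGI.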 Some results are limits rather than exact numbers.

Some test systems named below: RPMI-8226 leukemia; HT29 colon; MDA-MB-435; 786-0 renal; HS 578T breast; CAKI-1 renal; HCC-2998 colon; HL-60(TB) leukemia; NCI-H460 lung; MOLT-4 leukemia.
Holding throughout (experiment): NCI tumour cell line growth inhibition, 48 h

Take `O=C(c1cccnc1)c1cc(-c2ccccn2)c(=O)n2ccccc12`: the GI50 with RPMI-8226 leukemia, in the assay with HT29 colon, with MDA-MB-435, in the assay with 786-0 renal, with HS 578T breast and in the assay on CAKI-1 renal was above 100 µM throughout. Further, the GI50 with HCC-2998 colon, with HL-60(TB) leukemia, in the assay on NCI-H460 lung and with MOLT-4 leukemia was above 100 µM in each case. Besides, the TGI in the assay with RPMI-8226 leukemia, with HT29 colon, in the assay on MDA-MB-435, in the assay with 786-0 renal, with HS 578T breast and in the assay with CAKI-1 renal was above 100 µM throughout. Further, the TGI in the assay with HCC-2998 colon, in the assay with HL-60(TB) leukemia, with NCI-H460 lung and in the assay on MOLT-4 leukemia was above 100 µM throughout.

With `CN(C(=O)c1ccncc1)c1ccccc1`, the TGI with RPMI-8226 leukemia, in the assay with HT29 colon, in the assay with MDA-MB-435, in the assay with 786-0 renal, in the assay on HS 578T breast and in the assay on CAKI-1 renal was above 100 µM throughout. For the same compound, the TGI in the assay on HCC-2998 colon, in the assay with HL-60(TB) leukemia, in the assay on NCI-H460 lung and with MOLT-4 leukemia was above 100 µM in each case.

On to `CCCCN(CCCC)c1ccc(C(=NC(C)CCCN(CC)CC)c2ccc(N(C)C)cc2)cc1` (configuration not stated), for which the GI50 in the assay on RPMI-8226 leukemia is 0.95 µM; in the assay on HT29 colon it was 0.58 µM; with MDA-MB-435, 0.783 µM; in the assay with 786-0 renal, 0.705 µM; in the assay with HS 578T breast, 0.884 µM; with CAKI-1 renal, 1.17 µM. Also, the GI50 was 0.922 µM with HCC-2998 colon, 1.01 µM with HL-60(TB) leukemia, 0.842 µM in the assay with NCI-H460 lung and 0.865 µM in the assay on MOLT-4 leukemia. Further, the TGI worked out at 2.19 µM in the assay with RPMI-8226 leukemia; 1.58 µM in the assay with HT29 colon; 1.57 µM in the assay with MDA-MB-435; 1.43 µM in the assay with 786-0 renal; 2.05 µM in the assay on HS 578T breast; 3.41 µM in the assay on CAKI-1 renal. Moreover, the TGI was 1.77 µM in the assay on HCC-2998 colon, 2.03 µM with HL-60(TB) leukemia, 1.64 µM with NCI-H460 lung and 2.18 µM with MOLT-4 leukemia.

Regarding `Cn1ccnc1C(=O)/C=C/c1ccc(CC(=O)Nc2ccc(C(F)(F)F)cc2)cc1`, the GI50 in the assay on RPMI-8226 leukemia is 0.869 µM; with HT29 colon, 3.96 µM; in the assay on MDA-MB-435 it was 3.88 µM; in the assay on 786-0 renal, 1.81 µM; in the assay with HS 578T breast, 6.14 µM; in the assay on CAKI-1 renal it was 3.54 µM. In addition, the GI50 is 2.87 µM in the assay on HCC-2998 colon, 1.8 µM in the assay on HL-60(TB) leukemia, 2.99 µM with NCI-H460 lung and 1.17 µM in the assay with MOLT-4 leukemia. Further, the TGI in the assay on RPMI-8226 leukemia is 5.17 µM; with HT29 colon, 9.02 µM; in the assay on MDA-MB-435, 12.5 µM; with 786-0 renal it was 4.07 µM; in the assay on HS 578T breast, above 16.7 µM; with CAKI-1 renal, 9.53 µM. Further, the TGI came out at 5.44 µM in the assay with HCC-2998 colon, 9.82 µM with HL-60(TB) leukemia, 9.42 µM in the assay on NCI-H460 lung and 8.06 µM in the assay with MOLT-4 leukemia.

Take `Cc1ccc2c(c1)C(=O)c1c-2n(CCCBr)c(=O)c2cc([N+](=O)[O-])ccc12`: the GI50 in the assay on RPMI-8226 leukemia is 19.2 µM; with HT29 colon, 62.8 µM; with MDA-MB-435, above 100 µM; in the assay with 786-0 renal, 57.5 µM; in the assay on HS 578T breast, above 100 µM; with CAKI-1 renal, 5.28 µM. Moreover, the GI50 is 11.7 µM in the assay with HCC-2998 colon, 18.3 µM in the assay on HL-60(TB) leukemia, 6.43 µM in the assay with NCI-H460 lung and 26.6 µM in the assay on MOLT-4 leukemia. In addition, the TGI in the assay on RPMI-8226 leukemia was above 100 µM; in the assay on HT29 colon, above 100 µM; in the assay with MDA-MB-435 it was above 100 µM; in the assay on 786-0 renal, above 100 µM; in the assay with HS 578T breast, above 100 µM; in the assay on CAKI-1 renal, 32.6 µM. Moreover, the TGI in the assay on HCC-2998 colon was 77.6 µM; in the assay with HL-60(TB) leukemia it was above 100 µM; in the assay on NCI-H460 lung it was above 100 µM; with MOLT-4 leukemia it was above 100 µM.

`c1ccc(P(CCP(CCP(c2ccccc2)c2ccccc2)c2ccccc2)CCP(c2ccccc2)c2ccccc2)cc1` (configuration not stated): the TGI is above 10 µM in the assay with RPMI-8226 leukemia; above 10 µM in the assay on HT29 colon; above 10 µM in the assay on MDA-MB-435; 3.21 µM with 786-0 renal; above 10 µM in the assay with HS 578T breast; above 10 µM with CAKI-1 renal. The TGI in the assay with HCC-2998 colon was 4.52 µM; with HL-60(TB) leukemia, 3.69 µM; in the assay on NCI-H460 lung, 3.12 µM; in the assay with MOLT-4 leukemia, 5.85 µM. In addition, the GI50 in the assay on MDA-MB-435 is > 10 µM and 3.67 µM; in the assay on CAKI-1 renal, > 10 µM and 3 µM.

For `Nc1nc(N)c(N=O)c(OCC2CCCCC2)n1`, the GI50 in the assay on RPMI-8226 leukemia is 9.17 µM; with HT29 colon it was 6.88 µM; with MDA-MB-435, 12.8 µM; in the assay on 786-0 renal, 20.9 µM; in the assay on HS 578T breast it was 2.81 µM; in the assay on CAKI-1 renal, 3.99 µM. Further, the GI50 in the assay on HCC-2998 colon is 22.5 µM; in the assay on HL-60(TB) leukemia, 10.7 µM; in the assay on NCI-H460 lung, 8.93 µM; in the assay on MOLT-4 leukemia, 7.65 µM. Moreover, the TGI with RPMI-8226 leukemia was 98.7 µM and 36.1 µM; with HT29 colon, > 100 µM and 74.2 µM; with MDA-MB-435, above 85.3 µM; in the assay on 786-0 renal, > 100 µM and 84.1 µM; in the assay with HS 578T breast, 21 µM and 46.1 µM; with CAKI-1 renal it was 34 µM and 78.9 µM. Moreover, the TGI with HCC-2998 colon was above 100 µM; with HL-60(TB) leukemia it was 53.8 µM and 58.9 µM; with NCI-H460 lung, > 80.5 µM and 38.1 µM; in the assay on MOLT-4 leukemia, > 100 µM and 51 µM.

On to `C/C=C/[C@@H]1OC(=O)C2=C[C@@H](O)[C@@H](/C=C/C)O[C@H]21`, for which the GI50 in the assay on RPMI-8226 leukemia is 1.14 µM; with HT29 colon, 2.09 µM; in the assay on MDA-MB-435 it was 10.4 µM; in the assay with 786-0 renal it was 2.53 µM; in the assay with HS 578T breast it was 17.1 µM; with CAKI-1 renal, 1.71 µM. For the same compound, the GI50 was 28.3 µM in the assay with HCC-2998 colon, 7.47 µM with HL-60(TB) leukemia, 25.6 µM in the assay with NCI-H460 lung and 1.73 µM with MOLT-4 leukemia. Besides, the TGI came to 3.76 µM in the assay with RPMI-8226 leukemia; 5.89 µM in the assay on HT29 colon; 25.5 µM in the assay on MDA-MB-435; 8.36 µM with 786-0 renal; 41.2 µM with HS 578T breast; 3.81 µM with CAKI-1 renal. In addition, the TGI with HCC-2998 colon was 55 µM; in the assay on HL-60(TB) leukemia, above 100 µM; in the assay with NCI-H460 lung, 63.7 µM; in the assay with MOLT-4 leukemia, above 19.7 µM.
